Measurements published in PubChem BioAssay (NCI).
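How tested: cells in 96-well plates exposed to compound for 48 hours at five concentrations. The concentration for 50% growth inhibition is given as GI50. Definition used: TGI = concentration required for complete inhibition of growth.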

Experiments:
Assay in all cases: NCI anticancer screen, dose series, 48 h
SNB-19 CNS = test system: SNB-19 CNS
EKVX NSCLC = test system: EKVX NSCLC
SN12C renal = test system: SN12C renal
NCI-H460 lung = test system: NCI-H460 lung
RPMI-8226 leukemia = test system: RPMI-8226 leukemia
UACC-257 melanoma = test system: UACC-257 melanoma
SF-295 CNS = test system: SF-295 CNS
SK-OV-3 ovarian = test system: SK-OV-3 ovarian
HOP-92 NSCLC = test system: HOP-92 NSCLC
IGROV1 ovarian = test system: IGROV1 ovarian
SK-MEL-2 melanoma = test system: SK-MEL-2 melanoma
SF-539 CNS = test system: SF-539 CNS
DU-145 prostate = test system: DU-145 prostate
HOP-62 NSCLC = test system: HOP-62 NSCLC
CAKI-1 renal = test system: CAKI-1 renal
A549 NSCLC = test system: A549 NSCLC
U251 CNS = test system: U251 CNS
NCI/ADR-RES ovarian = test system: NCI/ADR-RES ovarian
OVCAR-5 ovarian = test system: OVCAR-5 ovarian
SK-MEL-28 melanoma = test system: SK-MEL-28 melanoma
MOLT-4 leukemia = test system: MOLT-4 leukemia
HCT-116 colon = test system: HCT-116 colon
A498 renal = test system: A498 renal
HCT-15 colon = test system: HCT-15 colon
HCC-2998 colon = test system: HCC-2998 colon
HS 578T breast = test system: HS 578T breast
HT29 colon = test system: HT29 colon
PC-3 prostate = test system: PC-3 prostate
CCRF-CEM leukemia = test system: CCRF-CEM leukemia
KM12 colon = test system: KM12 colon
K-562 leukemia = test system: K-562 leukemia
SF-268 CNS = test system: SF-268 CNS
NCI-H23 lung = test system: NCI-H23 lung
SNB-75 CNS = test system: SNB-75 CNS
OVCAR-8 ovarian = test system: OVCAR-8 ovarian
SR leukemia = test system: SR leukemia
T-47D breast = test system: T-47D breast
ACHN renal = test system: ACHN renal
786-0 renal = test system: 786-0 renal
NCI-H226 lung = test system: NCI-H226 lung
SK-MEL-5 melanoma = test system: SK-MEL-5 melanoma
M14 melanoma = test system: M14 melanoma
HL-60(TB) leukemia = test system: HL-60(TB) leukemia
RXF 393 renal = test system: RXF 393 renal
LOX IMVI melanoma = test system: LOX IMVI melanoma
UACC-62 melanoma = test system: UACC-62 melanoma
MCF7 breast = test system: MCF7 breast
OVCAR-4 ovarian = test system: OVCAR-4 ovarian
BT-549 breast = test system: BT-549 breast
UO-31 renal = test system: UO-31 renal
NCI-H522 lung = test system: NCI-H522 lung
COLO 205 colon = test system: COLO 205 colon
MDA-MB-435 = test system: MDA-MB-435
TK-10 renal = test system: TK-10 renal
MDA-MB-231 breast = test system: MDA-MB-231 breast
SW-620 colon = test system: SW-620 colon
MALME-3M melanoma = test system: MALME-3M melanoma

For CNC(=O)c1cc(Oc2ccc3c(c2)sc2nc(-c4ccc(N(C)C)cc4)cn23)ccn1, the GI50 (SNB-19 CNS) was 251 nM, the TGI (SNB-19 CNS) was over 50000 nM and the GI50 (EKVX NSCLC) was 1980 nM. For the same molecule, the TGI (EKVX NSCLC) was over 50000 nM, the GI50 (SN12C renal) was 282 nM and the TGI (SN12C renal) was over 50000 nM. The GI50 (NCI-H460 lung) was 206 nM, the TGI (NCI-H460 lung) was over 50000 nM and the GI50 (RPMI-8226 leukemia) was 329 nM. For the same molecule, the TGI (RPMI-8226 leukemia) was over 50000 nM, the GI50 (UACC-257 melanoma) was 19600 nM and the TGI (UACC-257 melanoma) was over 50000 nM. It also gave a GI50 (SF-295 CNS) of 160 nM, a TGI (SF-295 CNS) of 1150 nM and a GI50 (SK-OV-3 ovarian) of 273 nM. The TGI (SK-OV-3 ovarian) was over 50000 nM, the GI50 (HOP-92 NSCLC) was 260 nM and the TGI (HOP-92 NSCLC) was over 30300 nM. For the same molecule, the GI50 (IGROV1 ovarian) was 292 nM, the TGI (IGROV1 ovarian) was over 50000 nM and the GI50 (SK-MEL-2 melanoma) was 496 nM. For the same molecule, the TGI (SK-MEL-2 melanoma) was over 10500 nM, the GI50 (SF-539 CNS) was 178 nM and the TGI (SF-539 CNS) was 1280 nM. It also gave a GI50 (DU-145 prostate) of 451 nM, a TGI (DU-145 prostate) of over 50000 nM and a GI50 (HOP-62 NSCLC) of 319 nM. The TGI (HOP-62 NSCLC) was over 50000 nM, the GI50 (CAKI-1 renal) was 291 nM and the TGI (CAKI-1 renal) was over 50000 nM. The GI50 (A549 NSCLC) was 409 nM, the TGI (A549 NSCLC) was over 50000 nM and the GI50 (U251 CNS) was 210 nM. It also gave a TGI (U251 CNS) of 6370 nM, a GI50 (NCI/ADR-RES ovarian) of 186 nM and a TGI (NCI/ADR-RES ovarian) of over 50000 nM. For the same molecule, the GI50 (OVCAR-5 ovarian) was 659 nM, the TGI (OVCAR-5 ovarian) was over 50000 nM and the GI50 (SK-MEL-28 melanoma) was 1740 nM. For the same molecule, the TGI (SK-MEL-28 melanoma) was over 50000 nM, the GI50 (MOLT-4 leukemia) was 213 nM and the TGI (MOLT-4 leukemia) was over 50000 nM. It also gave a GI50 (HCT-116 colon) of 241 nM, a TGI (HCT-116 colon) of over 50000 nM and a GI50 (A498 renal) of 140 nM. For the same molecule, the TGI (A498 renal) was 831 nM, the GI50 (HCT-15 colon) was 202 nM and the TGI (HCT-15 colon) was over 50000 nM. It also gave a GI50 (HCC-2998 colon) of 836 nM, a TGI (HCC-2998 colon) of over 13400 nM and a GI50 (HS 578T breast) of 219 nM. For the same molecule, the TGI (HS 578T breast) was over 44100 nM, the GI50 (HT29 colon) was 177 nM and the TGI (HT29 colon) was 739 nM. It also gave a GI50 (PC-3 prostate) of 225 nM, a TGI (PC-3 prostate) of over 50000 nM and a GI50 (CCRF-CEM leukemia) of 197 nM. The TGI (CCRF-CEM leukemia) was over 50000 nM, the GI50 (KM12 colon) was 241 nM and the TGI (KM12 colon) was over 50000 nM. The GI50 (K-562 leukemia) was 152 nM, the TGI (K-562 leukemia) was over 50000 nM and the GI50 (SF-268 CNS) was 854 nM. For the same molecule, the TGI (SF-268 CNS) was over 50000 nM, the GI50 (NCI-H23 lung) was 614 nM and the TGI (NCI-H23 lung) was over 50000 nM. The GI50 (SNB-75 CNS) was 123 nM, the TGI (SNB-75 CNS) was 398 nM and the GI50 (OVCAR-8 ovarian) was 355 nM. The TGI (OVCAR-8 ovarian) was 2600 nM, the GI50 (SR leukemia) was 114 nM and the TGI (SR leukemia) was over 50000 nM. The GI50 (T-47D breast) was 271 nM, the TGI (T-47D breast) was over 50000 nM and the GI50 (ACHN renal) was 303 nM. The TGI (ACHN renal) was over 50000 nM, the GI50 (786-0 renal) was 291 nM and the TGI (786-0 renal) was over 18100 nM. For the same molecule, the GI50 (NCI-H226 lung) was 390 nM, the TGI (NCI-H226 lung) was over 50000 nM and the GI50 (SK-MEL-5 melanoma) was 206 nM. For the same molecule, the TGI (SK-MEL-5 melanoma) was 2110 nM, the GI50 (M14 melanoma) was 193 nM and the TGI (M14 melanoma) was over 50000 nM. For the same molecule, the GI50 (HL-60(TB) leukemia) was 134 nM, the TGI (HL-60(TB) leukemia) was 3480 nM and the GI50 (RXF 393 renal) was 128 nM. The TGI (RXF 393 renal) was 440 nM, the GI50 (LOX IMVI melanoma) was 474 nM and the TGI (LOX IMVI melanoma) was 1770 nM. For the same molecule, the GI50 (UACC-62 melanoma) was 170 nM, the TGI (UACC-62 melanoma) was over 50000 nM and the GI50 (MCF7 breast) was 167 nM. The TGI (MCF7 breast) was over 50000 nM, the TGI (OVCAR-4 ovarian) was over 50000 nM and the GI50 (BT-549 breast) was 208 nM. It also gave a TGI (BT-549 breast) of 31400 nM, a GI50 (UO-31 renal) of 289 nM and a TGI (UO-31 renal) of over 50000 nM. The GI50 (NCI-H522 lung) was 146 nM, the TGI (NCI-H522 lung) was 740 nM and the GI50 (COLO 205 colon) was 260 nM. The TGI (COLO 205 colon) was 1960 nM, the GI50 (MDA-MB-435) was 94 nM and the TGI (MDA-MB-435) was 237 nM. It also gave a GI50 (TK-10 renal) of 3720 nM, a TGI (TK-10 renal) of over 50000 nM and a GI50 (MDA-MB-231 breast) of 438 nM. The TGI (MDA-MB-231 breast) was over 37000 nM, the GI50 (SW-620 colon) was 226 nM and the TGI (SW-620 colon) was over 50000 nM. For the same molecule, the GI50 (MALME-3M melanoma) was 291 nM and the TGI (MALME-3M melanoma) was over 50000 nM.
